Data reported in ChEMBL document CHEMBL3046151, “Assessment of antithyroid activity of 2,8-disulfanyl-1,9-dihydro-6H-purin-6-one in vitro and in vivo” (2012).
Activity calls are given as the source filed them. No cut-off for these calls is given here.

Columns and labels:
[1] = system: Rattus norvegicus; experiment: Antithyroid activity in Rattus norvegicus Wistar (rat) assessed as cylindrical follicles in thyroid gland at 20 mg/kg, ip for 21 days by microscopic analysis; assay type: functional, organism-based; parameters: dose 20 mg/kg
[2] = system: Rattus norvegicus; experiment: Antithyroid activity in Rattus norvegicus Wistar (rat) assessed as little colloid material in epithelium of thyroid gland at 20 mg/kg, ip for 21 days by microscopic analysis; assay type: functional, organism-based; parameters: dose 20 mg/kg
[3] = system: Rattus norvegicus; experiment: Antithyroid activity in Rattus norvegicus Wistar (rat) assessed as thyroid stimulating hormone level in serum at 20 mg/kg, ip for 21 days measured after 21 days by ELISA (reference value: 1.83 +/- 0.307 microi.u/ml); assay type: functional; conditions: route intraperitoneal
[4] = system: Rattus norvegicus; experiment: Antithyroid activity in Rattus norvegicus Wistar (rat) assessed as free thyroxin(T4) level in serum at 20 mg/kg, ip for 21 days measured after 21 days by radioimmunoassay (reference value: 33.171 +/- 0.474 pmol/l); assay type: functional; conditions: route intraperitoneal
[5] = system: Rattus norvegicus; experiment: Antithyroid activity in Rattus norvegicus Wistar (rat) assessed as free triiodothyronine(T3) level in serum at 20 mg/kg, ip for 21 days measured after 21 days by radioimmunoassay (reference value: 8.007 +/- 0.167 pmol/l); assay type: functional; conditions: route intraperitoneal
[6] = Binding affinity to iodine assessed as compound-iodine complex formation by spectrophotometry

Row | Activity [6] | Compound | Activity [1] | Activity [2] | Activity [3] | Activity [4] | Activity [5]
1 |  | Cn1ccnc1S [METHIMAZOLE] | Active | Active | 6.014 uIU/ml | 25.096 pmol/L | 5.162 pmol/L
2 | Active | Oc1[nH]c(S)nc2nc(S)nc1-2 | Active | Active | 8.126 uIU/ml | 20.086 pmol/L | 4.418 pmol/L
